From patent publication EP4480943A1, “NEW CLASS OF LIPIDS FOR DELIVERING ACTIVE INGREDIENTS INTO CELLS” (Oz Biosciences, priority 2023, dated 2024)
Blank lines part the entries; values can stand above or below the molecule they belong to.

Assays:
[1] = Size and charge of LNPs by DLS (Malvern NanoZS); assay type: physicochemical
Method: Thin layer chromatographies (TLC) are carried out on aluminium plates covered with silica gel 60 Fasa (Merck). […] The synthesized products are purified on chromatography columns on silica. The flash chromatography separations are carried out on silica gel 60 (230-400 mesh ASTM) (Merck). Particle size and zeta potential measurements: The mean hydrodynamic particle size and charge measurements were performed using Dynamic Light Scattering (DLS) and Laser Doppler Velocimetry (LDV), respectively, using Malvern Nano ZS instrument and DTS software (Malvern Instruments, UK) in a water of Grade 2. Various amounts of cationic poloxamers were diluted in 100 µl of water and mixed with an equal volume of the same water containing DNA. The measurements were carried out in automatic mode and the results are presented as mean +/- SEM, n= 3. Each mean represents the average value of 30 measurements.
(§1) The size and charge of the collected LNPs are determined using DLS (Malvern Instruments NanoZS) by dissolving 50 µL of the collected solution in 950 µL of MilliQ water. Then, formed LNPs are destabilized by adding 1% v/v of Triton X-100 and incubate at 30°C for 1h and vortexing. After disruption of the formulation, a 1/100 solution of SyBr™Gold in water is prepared, and 0.5µL of it added to 49.5µL of the resulting mixture that includes Triton X-100. The SyBr™Gold is also added the same way to 49.5µL of a solution that contains non-disrupted LNPs, and to 49.5µL of the mRNA mother solution. Fluorescence of each sample is then read after 30 min incubation at RT using a Victor (Perkin Elmer) fluorimeter (excitation: 495nm; emission: 537nm ;). The encapsulation efficiency (ee(%)) is easily obtained from these fluorescence measurements using the formula below: ee (%) = ((Fluo_LNP1v%triton−Fluo_LNP))/(Fluo_RNAstock solution) × 100 [formula]

[2] = Encapsulation efficiency / loaded nucleic acid by SyBr Gold fluorescence after Triton X-100 disruption; assay type: physicochemical
Method: as §1

[3] = system: F-Luc mRNA expression; experiment: In vivo transfection of F-Luc mRNA using LNPs, bioluminescence (IVIS imaging); conditions: nude mice, i.p.
Source text: Lipids I, VI and XIV have been formulated into LNPs following the molar composition depicted before (Table 1). 5-methoxyuridine-modified mRNA encoding for Firefly Luciferase (OZ Biosciences, Cat: MRNA16-1000) has been entrapped into the LNP. […] Table 3: Main physical properties of mRNA(F-Luc) LNPs based on tunable lipids I, VI, XIV, and cationic lipid DOTAP
Overall, all LNPs formulations display consistent physico-chemical properties, controlled and reproducible size, charge, polydispersity and encapsulation rate to be used in small animals. A dose equivalent to 10 µg of mRNA has been injected i.p. (intra-peritoneally) in nude mice using three different LNPs. Tunable lipids I and XIV and DOTAP-based LNPs have been selected. Bioluminescence has been monitored over time using IVIS imaging system. […] Indeed 3h post injection, luminescence could be observed in all animals at different proportions (Figure 50). Specifically, F-Luc mRNA expression was higher in mice that received LNPs based on tunable lipids, whereas expression was much lower when DOTAP is used.

[4] = system: firefly luciferase; experiment: Biodistribution study of Luciferase mRNA LNPs, RT-PCR of organs; assay type: in vivo; conditions: nude mice, i.p., 10µg RNA dose, RT-PCR 6 hours after injection
Method: Biodistribution study involving tunable lipids-based LNPs (lipids I, VI, and XIV) has also been conducted in nude mice that were injected i.p. with Luciferase mRNA formulated into 3 different LNPs formulations at 10µg RNA dose to evaluate the nucleic acid delivery into various organs. The liver, lung, kidney and spleen were collected and analysed through RT-PCR 6 hours after injection. As observed previously, tunable lipids-based LNPs are appropriately efficient to allow the observation and quantitation of Luciferase protein in quantity 6 hours after i.p. injection.

[5] = system: ovalbumin (OVA) antigen; experiment: In vivo immunization with OVA mRNA LNPs, ELISA and Elispot; conditions: C57BL6J mice, s.c. prime boost (D0-14), 10µg mRNA
Source text: In this context, the emergence of vaccine-based LNPs represents a clear opportunity to reach pathologies impossible to fight with more classical vaccine approach. The tunable lipid presented in this document could envisioned as potent pillar for future nucleic acid-based vaccine, due to their ground-breaking features in term of efficiency and safe character. Thus, LNPs based on tunable lipids I and XIV have been formulated to encapsulate unmodified mRNA coding for the ovalbumin (OVA) antigen (OZ Biosciences, Cat: MRNA42-1000) and their physico-chemical properties determined (Table 4). Table 4: Main physical properties of mRNA(OVA) LNPs based on tunable lipids I and XIV.
C57BL6J mice received a prime boost (D0-14) immunizations of OVA antigen delivered by mRNA-based LNPs or by recombinant protein (alone or adjuvanted with aluminium-based adjuvant). To characterize the immuno-phenotyping of the mice, the sera and splenocytes were collected at different time (D0, D14, D21, D28) and analysed by ELISA and Elispot. The mice were immunized by s.c (sub-cutaneous) route with 100µL per injection at 10µg OVA subunit and 10µg mRNA doses. Results are depicted in figures 51 and 52, mRNA-OVA LNP formulations are efficient at priming a strong humoral response upon sub-cutaneous prime boost injection (D0-14). Indeed, a strong antibody response was measured after prime boost immunization. […]

[6] = NTsiRNA-Cy5 LNPs, DiO Label N, total lipid 4.74 mM, N/P 6
[7] = NTsiRNA-Cy5 LNPs, DiO Label Y, total lipid 4.74 mM, N/P 6
[8] = mRNA(F-Luc) LNPs, total lipid 5 mM, N/P 6
[9] = mRNA(GFP) LNPs, total lipid 3.75 mM, N/P 6
[10] = mRNA(OVA) LNPs, total lipid 5 mM, N/P 6
[11] = DNA pVectOZ (F-Luc) LNPs, total lipid 4.6 mM, N/P 12
[12] = DNA pVectOZ (eGFP) LNPs, total lipid 3.91 mM, N/P 6.6
[13] = DNA pVectOZ(Ppt) LNPs, total lipid 4 mM, N/P 10

PDI [1, 6]: 0.222 | Size [1, 6]: 114 nm | Zeta [1, 6]: +27 mV | PDI [1, 7]: 0.198 | Size [1, 7]: 106 nm | Zeta [1, 7]: -2.46 mV | PDI [1, 8]: 0.13 | Size [1, 8]: 99 nm | Zeta [1, 8]: +4.85 mV | PDI [1, 9]: 0.186 | Size [1, 9]: 115 nm | PDI [1, 10]: 0.149 | Size [1, 10]: 131.7 nm | Zeta [1, 10]: -7.9 mV | Encapsulation Efficiency [2, 6]: >90% | Loaded siRNA [2, 6]: 0.125 ng/µL | Encapsulation Efficiency [2, 7]: >90% | Loaded siRNA [2, 7]: 0.125 ng/µL | Encapsulation Efficiency [2, 8]: 87.5% | Loaded RNA [2, 8]: 175 ng/µL | Encapsulation Efficiency [2, 9]: 91% | Loaded RNA [2, 9]: 91 ng/µL | Encapsulation Efficiency [2, 10]: 94% | Loaded RNA [2, 10]: 94 ng/µL
SMILES: CCCCC/C=C\C/C=C\CCCCCCCCNC(=O)CCC(NC(=O)CCCN(C)C)C(=O)NCCCCCCCC/C=C\C/C=C\CCCCC (centres unmarked) [XIV]
time of maximum bioluminescence signal post injection ([3]; 10 µg mRNA): 3 h | Luciferase gene expression in kidney [4]: most efficient between the three tested formulation | Luciferase gene expression in lung [4]: highest rate of gene expression | immune response (initial response of IgG2c) [5]: efficient in generating an immune response

Encapsulation Efficiency [2, 9]: 89% | Loaded RNA [2, 9]: 89 ng/µL
SMILES: CCCCCCC/C=C\CCCCCCCCNC(=O)CCC(NC(=O)OCCN(CC)CC)C(=O)NCCCCCCCC/C=C\CCCCCCCC (centres unmarked) [V]

PDI [1, 9]: 0.2 | Size [1, 9]: 113 nm | Zeta [1, 9]: 5.57 mV | Encapsulation Efficiency [2, 9]: 98.8% | Loaded RNA [2, 9]: 98.8 ng/µL
SMILES: CCCCCCC/C=C\CCCCCCCCNC(=O)CCC(NC(=O)CCCN(C)C)C(=O)NCCCCCCCC/C=C\CCCCCCCC (centres unmarked) [II]

SMILES: CCCCCCCC/C=C\CCCCCCCC(=O)OCC(C[N+](C)(C)C)OC(=O)CCCCCCC/C=C\CCCCCCCC (centres unmarked) [DOTAP, I ,2-dioleoy-3-tri-methylarnmonium propane, reference compound]
PDI [1, 8]: 0.23 | Size [1, 8]: 96 nm | Zeta [1, 8]: +17 mV | Encapsulation Efficiency [2, 8]: 91.5% | Loaded RNA [2, 8]: 183 ng/µL | F-Luc mRNA expression (bioluminescence) ([3]; 10 µg of mRNA, 3h post injection): much lower

PDI [1, 11]: 0.079 | Size [1, 11]: 103 nm | Zeta [1, 11]: +16.5 mV | PDI [1, 6]: 0.091 | Size [1, 6]: 116 nm | Zeta [1, 6]: +18.2 mV | PDI [1, 7]: 0.073 | Size [1, 7]: 99 nm | Zeta [1, 7]: +19.9 mV | polydispersity index ([1]; NTsiRNA-Cy5 LNPs, with or without DiO): below 0.1 | Encapsulation Efficiency [2, 11]: 92% | Loaded DNA [2, 11]: 94 ng/µL | Encapsulation Efficiency [2, 6]: >90% | Loaded siRNA [2, 6]: 0.125 ng/µL | Encapsulation Efficiency [2, 7]: >90% | Loaded siRNA [2, 7]: 0.125 ng/µL
SMILES: CCCCC/C=C\C/C=C\CCCCCCCCOC(=O)CCC(NC(=O)CCCN(C)C)C(=O)OCCCCCCCC/C=C\C/C=C\CCCCC (centres unmarked) [XI]

PDI [1, 8]: 0.13 | Size [1, 8]: 115 nm | Zeta [1, 8]: -2.25 mV | PDI [1, 9]: 0.344 | Size [1, 9]: 117 nm | Zeta [1, 9]: +0.3 mV | Encapsulation Efficiency [2, 8]: 94% | Loaded RNA [2, 8]: 188 ng/µL | Encapsulation Efficiency [2, 9]: 84% | Loaded RNA [2, 9]: 84 ng/µL
SMILES: CCCCCCCC/C=C\CCCCCCCCNC(=O)CCC(NC(=O)CCC(=O)NCCSSCCNC(=O)CN(C)C)C(=O)NCCCCCCCC/C=C\CCCCCCCC (centres unmarked) [VI]
Luciferase gene expression in liver [4]: rate comparable to those observed in the lungs | Luciferase gene expression in spleen [4]: high delivery

Encapsulation Efficiency [2, 9]: 78.3% | Loaded RNA [2, 9]: 78.3 ng/µL
SMILES: CCCCCCCC/C=C\CCCCCCCC(=O)NCCCC(NC(=O)CCCCCCC/C=C\CCCCCCCC)C(=O)NCCCn1ccnc1 (centres unmarked) [XV]

PDI [1, 12]: 0.044 | Size [1, 12]: 158.9 nm | Zeta [1, 12]: +4.61 mV | PDI [1, 13]: 0.079 | Size [1, 13]: 173 nm | Zeta [1, 13]: +14.3 mV | PDI [1, 8]: 0.09 | Size [1, 8]: 88 nm | Zeta [1, 8]: -7.3 mV | Zeta [1, 9]: -9.3 mV | PDI [1, 10]: 0.153 | Size [1, 10]: 111.4 nm | Zeta [1, 10]: -9.01 mV | Encapsulation Efficiency [2, 12]: 83% | Loaded DNA [2, 12]: 0.125 ng/µL | Encapsulation Efficiency [2, 13]: 82% | Loaded DNA [2, 13]: 0.125 ng/µL | Encapsulation Efficiency [2, 8]: 97.5% | Loaded RNA [2, 8]: 195 ng/µL | Encapsulation Efficiency [2, 9]: 94.6% | Loaded RNA [2, 9]: 94.6 ng/µL | Encapsulation Efficiency [2, 10]: 98.1% | Loaded RNA [2, 10]: 98.1 ng/µL
SMILES: CCCCCCCC/C=C\CCCCCCCCNC(=O)CCC(NC(=O)CN(C)C)C(=O)NCCCCCCCC/C=C\CCCCCCCC (centres unmarked) [I]
time of maximum bioluminescence signal post injection ([3]; 10 µg mRNA): 6 h | overall luminescence signal (kinetics) ([3]; 10 µg mRNA, over 25h): highest overall luminescence signal | Luciferase gene expression in lung [4]: high protein expression rate | Luciferase gene expression in spleen [4]: high protein expression rate | immune response (initial response of IgG2c) [5]: efficient in generating an immune response

PDI [1, 9]: 0.109 | Size [1, 9]: 141 nm | Zeta [1, 9]: +11.6 mV | Encapsulation Efficiency [2, 9]: 83.6% | Loaded RNA [2, 9]: 83.6 ng/µL
SMILES: CCCCC/C=C\C/C=C\CCCCCCCCOC(=O)CCC(NC(=O)CN(C)C)C(=O)OCCCCCCCC/C=C\C/C=C\CCCCC (centres unmarked) [X]
